What was measured:
rumen ciliate protozoa [1] = assay: In vitro activity of defaunation compounds against rumen ciliate protozoa; assay type: cell-based; details: 39° C., anaerobic, 3 hours, tested at 50, 150, 250 and 500 ppm
Description: Compounds of Table 1 were tested for their toxicity against rumen ciliate protozoa by firstly isolating protozoa from rumen liquor collected from faunated animals. The rumen liquor was then centrifuged at 500 g for five minutes and the supernatant discarded. The protozoal-rich sediment was then reconstituted in McDougal's artificial saliva. Residual bacteria were suppressed by using a combination of two antibiotics at low concentration. Nitrogen and energy substrate was optimized for the protozoal preparation. At all times the protozoal preparation was maintained at 39° C. and kept anaerobic.
Sixty milligrams of each the compounds of Table 1 were dissolved in 1.2 ml of dimethyl sulphoxide and dispersed in triplicate to achieve a final concentration of 50, 150, 250 and 500 ppm. Ten milliliters of protozoal preparation was then added to each tube. After every second compound, control tubes were included which contained everything except for compound. The tubes, to which a 5 ml glass syringe was attached, were then incubated for 3 hours in a water bath at 39° C. The production of gas causes the syringe plunger to be displaced.
At the end of the incubation period, the volume of gas produced was recorded and the viability of the protozoa assessed visually using a microscope. The toxicity of the compounds to protozoa was assessed from both the reduction in gas produced relative to the control and by direct observation of the protozoa for movement of cilia.

rumen bacteria [2] = assay: Bacterial viability in sheep after administering defaunation compounds; assay type: in vivo; details: gas production one week after dosing vs pre-dosing
Description: In order to establish what effect the compounds had on the viability of rumen bacteria, a sample of rumen liquor was collected prior to dosing of the compound. The sample was withdrawn under vacuum using a pre-warmed tube inserted into the rumen through a rumen cannula. The sample was collected in a pre-warmed (39° C.) flask, gassed with carbon dioxide and covered. Two-pre-warmed 30 ml centrifuge tubes were then filled with well mixed rumen liquor and centrifuged at 2000 rpm for 5 minutes. Half the volume of each tube was then poured into another pre-warmed tube without disturbing the sediment. Three lots of 10 ml of this rumen liquor were then pipetted into 15 ml tubes which contained 10 μL of urea solution (40% w/v and 300 μL of glucose solution (50% w/v). The urea and glucose acted as substrate for the bacteria. The tubes were then gassed with carbon dioxide, stoppered and placed in a water bath at 39° C. After 10 minutes a 5 ml glass syringe was secured into the stoppers (through which a hypodermic needle had been inserted) and the gas collected for five hours and recorded.
This bacterial viability measure was then repeated one week after dosing with each of the compounds referred to in Table 1. Defaunation compositions were prepared according to the method of Example 1. The amount of gas produced was then compared with the pre-dosing level. The criterion for classifying post-dosing bacterial viability is shown below:
Poor--reduction in post-dosing gas production relative to pre-dosing levels.
OK--post-dosing gas production the same as pre-dosing levels.
Good--increase in post-dosing gas production relative to pre-dosing levels.

mice = assay: Mouse safety assessment; assay type: in vivo; details: oral gavage, 830, 415 and 217 mg/kg, observed for 2 days
Description: Compounds of Table 1 chosen for testing in sheep were first tested in mice for signs of toxicity. Because sheep are approximately 5 times more sensitive than mice to compounds dosed orally, the dose rates applied to mice were 5 times greater than the target dose rate of 500 ppm. in rumen liquor (83 mg/kg live weight) used for sheep. Each compound was screened at three different dose levels, high (830 mg/kg), medium (415 mg/kg) and low (217 mg/kg).
252 mg of compound was used for dilution into a high medium and low dose rate. 252 mg of compound was mixed with 3 ml of G1284 solution (4% w/v ethoxylated castor oil and 0.05% w/v simethicone), to form the high dose composition. The medium dose composition was formed by diluting 1.5 ml of the high dose with 1.5 ml of G1284 solution. The low dose composition was formed by diluting 1.5 ml of the medium dose with 1.5 ml of G1284 solution. Before the high dose could be diluted it was first manually ball milled in an effort to produce a fine suspension of the compound.
All mice were weighed before dosing to calculate the appropriate dose rate. The calculation for dose rate was: [formula]
Each mouse was dosed using the Gavage method. With this method the mouse is dosed orally by way of an angled hypodermic needle (18 g) with a smooth spherical end. It is gently placed down the esophagus. All care must be taken not to force the needle and injure the esophagus or dose into the lungs.
Observations were made at 10, 30, 60 and 120 minutes after dosing, then every 1 or 2 hours for the first 6 hours.
Mice were usually observed for 2 days.
Typically, few compounds fell within the poor classification. The majority of compounds tested were either in the fair or good classification.

rumen bacteria [3] = assay: In vitro bacterial gas inhibition; assay type: cell-based; details: at the concentration known to kill protozoa
Description: Compounds of Table 1 were also tested for toxicity bacteria. This involved removing protozoa from rumen liquor by centrifugation at 2,000 g for 5 minutes and collecting the bacterial rich supernatant. Nitrogen and energy substrate was added to the bacterial preparation which was then dispensed in triplicate 10 ml volumes over the same range of compound concentrations (50, 150, 250 and 500 ppm.) referred to in Example 2. Control tubes were placed after every second compound to enable the inhibition of gas resulting from the compound to be assessed. […] It can be seen that these compounds are selective in their mode of action, in that they are more toxic to protozoa than bacteria.

[4] = Effect of defaunation compounds on feed intake of sheep; assay type: in vivo; details: after dosing vs pre-dosing intake
Description: Sheep were allowed a minimum of three weeks to adapt to their ration of 900 g of oaten chaff and 100 g of Lucerne chaff. The pre-dosing level of intake for each animal was established from the mean of five days intake immediately prior to dosing. Any effects of administering the compound on feed intake was then determined by measuring the level of feed intake after dosing.
The criteria of classifying the effect on food intake are shown below.
Poor--greater than 50% reduction in feed intake during the first week after dosing.
Fair--greater than 50% reduction in feed intake on the day following dosing but less then 50% reduction one week after dosing.
OK--transient drop in feed intake which is less than 50% on the day after dosing.
Good--No reduction in feed intake following dosing.

rumen ciliate protozoa [5] = assay: Protozoal reduction in sheep; assay type: in vivo; parameters: concentration or dose not given beside the values; details: one week after dosing, relative to predosing numbers
Description: Defaunation compositions were prepared according to the method of Example 1.
Prior to dosing of the compound, a sample of rumen liquor (200 ml) was withdrawn to establish basal numbers of protozoa.
The sample was collected using a stomach tube, inserted into the rumen via a rumen cannula (fistulated animals) or per esophagus (intact animals). After straining the sample was well mixed using a magnetic stirrer and a 0.5 ml sample was withdrawn and added to 49.5 ml of a crystal violet stain. Protozoa were counted using a microscope and a Hawksley counting chamber.
One week after administering the compound, another rumen liquor sample was collected (as described above) and examined for the presence of protozoa. Where rumen ciliate protozoa were undetectable, a reduction or inhibition value of 100% was recorded. In general, most compounds expressed a strong inhibitory effect on protozoal populations.

Cc1ccc(Nc2nc(Cl)nc(Cl)n2)cc1C [Compound 10]
Conc Required to Kill all Protozoa (rumen ciliate protozoa [1]): 250 ppm | Bacterial Viability (rumen bacteria [2]): Good | Mouse Safety Assessment (mice): Fair (>2 mice sick) | Bact. Gas Inhibition at the conc. required to kill protozoa (rumen bacteria [3]): 55 | Feed Intake [4]: Good | Protozoal Reduction (rumen ciliate protozoa [5]): 100%

COc1ccc(Nc2nc(Cl)nc(Cl)n2)c([N+](=O)[O-])c1 [Compound 31]
Conc Required to Kill all Protozoa (rumen ciliate protozoa [1]): 250 ppm | Bact. Gas Inhibition at the conc. required to kill protozoa (rumen bacteria [3]): 39

Cc1ccc(Nc2nc(Cl)nc(Cl)n2)cc1 [Compound 6]
Conc Required to Kill all Protozoa (rumen ciliate protozoa [1]): 150 ppm | Bacterial Viability (rumen bacteria [2]): Okay | Mouse Safety Assessment (mice): Poor (death at 840 mg/kg) | Bact. Gas Inhibition at the conc. required to kill protozoa (rumen bacteria [3]): 40 | Feed Intake [4]: Okay (transient drop, less than 50% at day 2) | Protozoal Reduction (rumen ciliate protozoa [5]): 100%

Cc1ccc(N(C)c2nc(Cl)nc(Cl)n2)c(C)c1 [Compound 12]
Conc Required to Kill all Protozoa (rumen ciliate protozoa [1]): 250 ppm | Bact. Gas Inhibition at the conc. required to kill protozoa (rumen bacteria [3]): 35

Cc1ccc(N(C)c2nc(Cl)nc(Cl)n2)cc1 [Compound 33]
Conc Required to Kill all Protozoa (rumen ciliate protozoa [1]): 250 ppm | Bact. Gas Inhibition at the conc. required to kill protozoa (rumen bacteria [3]): 33

Clc1ccc(Nc2nc(Cl)nc(Cl)n2)cc1 [Compound 2]
Conc Required to Kill all Protozoa (rumen ciliate protozoa [1]): 150 ppm | Bacterial Viability (rumen bacteria [2]): Good | Mouse Safety Assessment (mice): Poor (death at 840 mg/kg) | Bact. Gas Inhibition at the conc. required to kill protozoa (rumen bacteria [3]): 38 | Feed Intake [4]: Fair | Protozoal Reduction (rumen ciliate protozoa [5]): 100%

CC(C)c1ccc(Nc2nc(Cl)nc(Cl)n2)cc1 [Compound 21]
Conc Required to Kill all Protozoa (rumen ciliate protozoa [1]): 150 ppm | Bacterial Viability (rumen bacteria [2]): Good | Mouse Safety Assessment (mice): Fair (>2 mice sick) | Bact. Gas Inhibition at the conc. required to kill protozoa (rumen bacteria [3]): 55 | Feed Intake [4]: Good | Protozoal Reduction (rumen ciliate protozoa [5]): 100%

Cc1cc(O)c(C(C)(C)C)cc1Nc1nc(Cl)nc(Cl)n1 [Compound 34]
Conc Required to Kill all Protozoa (rumen ciliate protozoa [1]): 250 ppm | Bact. Gas Inhibition at the conc. required to kill protozoa (rumen bacteria [3]): 81

CSc1cccc(Nc2nc(Cl)nc(Cl)n2)c1 [Compound 15]
Conc Required to Kill all Protozoa (rumen ciliate protozoa [1]): 150 ppm | Bacterial Viability (rumen bacteria [2]): Good | Mouse Safety Assessment (mice): Fair (>2 mice sick) | Bact. Gas Inhibition at the conc. required to kill protozoa (rumen bacteria [3]): 52 | Feed Intake [4]: Good | Protozoal Reduction (rumen ciliate protozoa [5]): 100%

COc1ccc(Nc2nc(Cl)nc(Cl)n2)c(C)c1 [Compound 13]
Conc Required to Kill all Protozoa (rumen ciliate protozoa [1]): 250 ppm | Bact. Gas Inhibition at the conc. required to kill protozoa (rumen bacteria [3]): 48

CN(c1ccccc1)c1nc(Cl)nc(Cl)n1 [Compound 14]
Conc Required to Kill all Protozoa (rumen ciliate protozoa [1]): 250 ppm | Bact. Gas Inhibition at the conc. required to kill protozoa (rumen bacteria [3]): 38

Clc1nc(Cl)nc(Nc2ccccc2)n1 [Compound 1]
Conc Required to Kill all Protozoa (rumen ciliate protozoa [1]): 250 ppm | Bact. Gas Inhibition at the conc. required to kill protozoa (rumen bacteria [3]): 43
